Assay results taken from ChEMBL document CHEMBL6153150, “Design, Synthesis, and Biological Evaluation of Chiral-Proline Derivatives as Novel HSP90 Inhibitors” (ACS Med Chem Lett, 2025).

Tests used:
K562 = assay: Antiproliferative activity against human K562 cells assessed as cell viability inhibition rate incubated for 72 hr by MTT assay; assay type: functional, cell-based; details: K562, 72 h
MCF7 = assay: Antiproliferative activity against human MCF7 cells assessed as cell viability inhibition rate incubated for 72 hr by MTT assay; assay type: functional, cell-based; details: MCF7, 72 h
Heat shock protein HSP90 = Heat shock protein HSP90 (Homo sapiens, UniProt P07900+P08238); assay: Binding affinity to Hsp90 (unknown origin) assessed as dissociation constant incubated for 30 mins by fluorescence spectrophotometric analysis; assay type: protein assay
A549 = assay: Antiproliferative activity against human A549 cells assessed as cell viability inhibition rate incubated for 72 hr by MTT assay; assay type: functional, cell-based; details: A549, 72 h
SK-BR-3 = assay: Antiproliferative activity against human SK-BR-3 cells assessed as cell viability inhibition rate incubated for 72 hr by MTT assay; assay type: functional, cell-based; details: SK-BR-3, 72 h
HCT-116 = assay: Antiproliferative activity against human HCT-116 cells assessed as cell viability inhibition rate incubated for 72 hr by MTT assay; assay type: functional, cell-based; details: HCT-116, 72 h

| Structure (SMILES) | IC50 (K562) [nM] | IC50 (MCF7) [nM] | Kd (Heat shock protein HSP90) [nM] | IC50 (A549) [nM] | IC50 (SK-BR-3) [nM] | IC50 (HCT-116) [nM] |
| --- | --- | --- | --- | --- | --- | --- |
| COc1ccc(CNC(=O)[C@H]2C[C@H](c3ccccc3)CN2C(=O)c2cc(C3CC3)c(O)cc2O)cc1 | 561 | 167 | 168 | 113 | 631 | 631 |
| O=C(NCc1ccc(F)cc1F)[C@H]1C[C@H](c2ccccc2)CN1C(=O)c1cc(C2CC2)c(O)cc1O | 378 | 37 | 157 | 54 | 256 | 272 |
| CC1CCCN(C(=O)[C@H]2C[C@H](c3ccccc3)CN2C(=O)c2cc(C(C)C)c(O)cc2O)C1 (some centres not stated) |  |  | 2162 |  |  |  |
| CC(C)c1cc(C(=O)N2C[C@@H](c3ccccc3)C[C@@H]2C(=O)NCC2CC2)c(O)cc1O |  |  | 354 |  |  |  |
| CC(C)CNC(=O)[C@H]1C[C@H](c2ccccc2)CN1C(=O)c1cc(C2CC2)c(O)cc1O | 533 | 93 | 107 | 89 | 765 | 403 |
| COCCN(CCOC)C(=O)[C@H]1C[C@H](c2ccccc2)CN1C(=O)c1cc(C(C)C)c(O)cc1O | 703 | 375 | 783 | 301 | 877 | 731 |
| COc1ccc(CNC(=O)[C@H]2C[C@H](c3ccccc3)CN2C(=O)c2cc(C(C)C)c(O)cc2O)cc1 | 541 | 107 | 147 | 103 | 732 | 473 |
| CC(C)CNC(=O)[C@H]1C[C@H](c2ccccc2)CN1C(=O)c1cc(C(C)C)c(O)cc1O | 539 | 87 | 165 | 63 | 653 | 435 |
| CC(C)c1cc(C(=O)N2C[C@@H](c3ccccc3)C[C@@H]2C(=O)NC(C)C(C)C)c(O)cc1O (some centres not stated) | 566 | 185 | 345 | 130 | 738 | 637 |
| CC(C)c1cc(C(=O)N2C[C@@H](c3ccccc3)C[C@@H]2C(=O)N(C)C2CCCCC2)c(O)cc1O |  |  | 1762 |  |  |  |
| COCCNC(=O)[C@H]1C[C@H](c2ccccc2)CN1C(=O)c1cc(C(C)C)c(O)cc1O |  |  | 188 |  |  |  |
| CC(C)c1cc(C(=O)N2C[C@@H](c3ccccc3)C[C@@H]2C(=O)NCc2ccc3ccccc3n2)c(O)cc1O | 531 | 87 | 432 | 78 | 634 | 537 |
| CC(C)c1cc(C(=O)N2C[C@@H](c3ccccc3)C[C@@H]2C(=O)N2CCCCC2C)c(O)cc1O (some centres not stated) |  |  | 2171 |  |  |  |
| COCCN1CCN(C(=O)[C@H]2C[C@H](c3ccccc3)CN2C(=O)c2cc(C(C)C)c(O)cc2O)CC1 |  |  | 637 |  |  |  |
| CC(C)OCCCNC(=O)[C@H]1C[C@H](c2ccccc2)CN1C(=O)c1cc(C(C)C)c(O)cc1O |  |  | 202 |  |  |  |
| CCCN(CCC)C(=O)[C@H]1C[C@H](c2ccccc2)CN1C(=O)c1cc(C(C)C)c(O)cc1O |  |  | 2516 |  |  |  |
| CCN(C(=O)[C@H]1C[C@H](c2ccccc2)CN1C(=O)c1cc(C(C)C)c(O)cc1O)C(C)C |  |  | 2479 |  |  |  |
| CC(C)c1cc(C(=O)N2C[C@@H](c3ccccc3)C[C@@H]2C(=O)N2CCN(C)CC2)c(O)cc1O |  |  | 2310 |  |  |  |
| O=C(NCc1ccccn1)[C@H]1C[C@H](c2ccccc2)CN1C(=O)c1cc(C2CC2)c(O)cc1O | 876 | 47 | 57 | 67 | 351 | 263 |

| Structure (SMILES) | IC50 (K562) [nM] | IC50 (MCF7) [nM] | Kd (Heat shock protein HSP90) [nM] | IC50 (A549) [nM] | IC50 (SK-BR-3) [nM] | IC50 (HCT-116) [nM] |
| --- | --- | --- | --- | --- | --- | --- |
| COCCN(CCOC)C(=O)[C@H]1C[C@H](c2ccccc2)CN1C(=O)c1cc(C2CC2)c(O)cc1O | 596 | 336 | 637 | 163 | 761 | 795 |
| Cc1ccc(CNC(=O)[C@H]2C[C@H](c3ccccc3)CN2C(=O)c2cc(C3CC3)c(O)cc2O)cc1 | 566 | 89 | 153 | 89 | 431 | 471 |
| CC(C)c1cc(C(=O)N2C[C@@H](c3ccccc3)C[C@@H]2C(=O)NCc2ccccc2)c(O)cc1O | 471 | 61 | 87 | 39 | 267 | 303 |
| CC(C)c1cc(C(=O)N2C[C@@H](c3ccccc3)C[C@@H]2C(=O)N2CCCC2)c(O)cc1O |  |  | 2033 |  |  |  |
| CC(C)c1cc(C(=O)N2C[C@@H](c3ccccc3)C[C@@H]2C(=O)N2CCN(c3ncccn3)CC2)c(O)cc1O |  |  | 1631 |  |  |  |
| CC(C)NC(=O)[C@H]1C[C@H](c2ccccc2)CN1C(=O)c1cc(C(C)C)c(O)cc1O |  |  | 1237 |  |  |  |
| CC(C)c1cc(C(=O)N2C[C@@H](c3ccccc3)C[C@@H]2C(=O)N(C)C2CC2)c(O)cc1O |  |  | 1871 |  |  |  |
| COc1ccc(C(C)NC(=O)[C@H]2C[C@H](c3ccccc3)CN2C(=O)c2cc(C3CC3)c(O)cc2O)cc1 (some centres not stated) | 667 | 126 | 263 | 82 | 451 | 641 |
| CC(C)c1cc(C(=O)N2C[C@@H](c3ccccc3)C[C@@H]2C(=O)NCc2ccccc2F)c(O)cc1O | 631 | 87 | 231 | 71 | 462 | 376 |
| O=C(NCc1ccccc1F)[C@H]1C[C@H](c2ccccc2)CN1C(=O)c1cc(C2CC2)c(O)cc1O | 411 | 86 | 168 | 29 | 312 | 291 |
| CC(C)c1cc(C(=O)N2C[C@@H](c3ccccc3)C[C@@H]2C(=O)NC2CCCC2)c(O)cc1O |  |  | 876 |  |  |  |
| O=C(NCc1ccccc1Cl)[C@H]1C[C@H](c2ccccc2)CN1C(=O)c1cc(C2CC2)c(O)cc1O | 457 | 76 | 236 | 42 | 331 | 301 |
| CCCN1CCN(C(=O)[C@H]2C[C@H](c3ccccc3)CN2C(=O)c2cc(C(C)C)c(O)cc2O)CC1 |  |  | 1033 |  |  |  |
| CCOCCNC(=O)[C@H]1C[C@H](c2ccccc2)CN1C(=O)c1cc(C(C)C)c(O)cc1O |  |  | 124 |  |  |  |
| CC(C)c1cc(C(=O)N2C[C@@H](c3ccccc3)C[C@@H]2C(=O)N(C)Cc2ccccc2)c(O)cc1O |  |  | 2331 |  |  |  |
| CC(C)c1cc(C(=O)N2C[C@@H](c3ccccc3)C[C@@H]2C(=O)NC2CCCCC2)c(O)cc1O |  |  | 1076 |  |  |  |
| CCOCCCNC(=O)[C@H]1C[C@H](c2ccccc2)CN1C(=O)c1cc(C(C)C)c(O)cc1O | 707 | 231 | 1098 | 203 | 933 | 1130 |
| CC(C)c1cc(C(=O)N2C[C@@H](c3ccccc3)C[C@@H]2C(=O)N2CCCCC2)c(O)cc1O |  |  | 1337 |  |  |  |
| CCOCCCNC(=O)[C@H]1C[C@H](c2ccccc2)CN1C(=O)c1cc(C2CC2)c(O)cc1O | 504 | 183 | 937 | 203 | 733 | 1010 |

| Structure (SMILES) | IC50 (K562) [nM] | IC50 (MCF7) [nM] | Kd (Heat shock protein HSP90) [nM] | IC50 (A549) [nM] | IC50 (SK-BR-3) [nM] | IC50 (HCT-116) [nM] |
| --- | --- | --- | --- | --- | --- | --- |
| CC(C)c1cc(C(=O)N2C[C@@H](c3ccccc3)C[C@@H]2C(=O)N2CCN(CC3CC3)CC2)c(O)cc1O |  |  | 862 |  |  |  |
| CC(C)CN(C)C(=O)[C@H]1C[C@H](c2ccccc2)CN1C(=O)c1cc(C(C)C)c(O)cc1O |  |  | 1573 |  |  |  |
| CCCCN(C)C(=O)[C@H]1C[C@H](c2ccccc2)CN1C(=O)c1cc(C(C)C)c(O)cc1O |  |  | 1637 |  |  |  |
| CC(NC(=O)[C@H]1C[C@H](c2ccccc2)CN1C(=O)c1cc(C2CC2)c(O)cc1O)c1ccccc1 (some centres not stated) | 702 | 101 | 201 | 107 | 633 | 631 |
| CCN(C)C(=O)[C@H]1C[C@H](c2ccccc2)CN1C(=O)c1cc(C(C)C)c(O)cc1O |  |  | 1873 |  |  |  |
| CCCNC(=O)[C@H]1C[C@H](c2ccccc2)CN1C(=O)c1cc(C(C)C)c(O)cc1O |  |  | 1653 |  |  |  |
| CC(C)c1cc(C(=O)N2C[C@@H](c3ccccc3)C[C@@H]2C(=O)NC2CC2)c(O)cc1O |  |  | 1213 |  |  |  |
| CC(C)c1cc(C(=O)N2C[C@@H](c3ccccc3)C[C@@H]2C(=O)N2CCC(N3CCCCC3)CC2)c(O)cc1O |  |  | 983 |  |  |  |
| CCCCCNC(=O)[C@H]1C[C@H](c2ccccc2)CN1C(=O)c1cc(C(C)C)c(O)cc1O |  |  | 2161 |  |  |  |
| CCN(CC)CCNC(=O)[C@H]1C[C@H](c2ccccc2)CN1C(=O)c1cc(C(C)C)c(O)cc1O |  |  | 431 |  |  |  |
| CC(C)c1cc(C(=O)N2C[C@@H](c3ccccc3)C[C@@H]2C(=O)N2CCC(OCC3CC3)CC2)c(O)cc1O |  |  | 1632 |  |  |  |
| CC(C)c1cc(C(=O)N2C[C@@H](c3ccccc3)C[C@@H]2C(=O)NCCCn2ccnc2)c(O)cc1O |  |  | 1376 |  |  |  |
| CCNC(=O)[C@H]1C[C@H](c2ccccc2)CN1C(=O)c1cc(C(C)C)c(O)cc1O |  |  | 1132 |  |  |  |
| CCC1CCCCN1C(=O)[C@H]1C[C@H](c2ccccc2)CN1C(=O)c1cc(C(C)C)c(O)cc1O (some centres not stated) |  |  | 1677 |  |  |  |
| CC(C)c1cc(C(=O)N2C[C@@H](c3ccccc3)C[C@@H]2C(=O)N2CCN(C(C)C)CC2)c(O)cc1O |  |  | 1021 |  |  |  |
| O=C(c1ccc(O)cc1)N1Cc2ccccc2C1 |  |  | 4300 |  |  |  |
| CCCCNC(=O)[C@H]1C[C@H](c2ccccc2)CN1C(=O)c1cc(C(C)C)c(O)cc1O |  |  | 1873 |  |  |  |
| CC(C)CCNC(=O)[C@H]1C[C@H](c2ccccc2)CN1C(=O)c1cc(C(C)C)c(O)cc1O |  |  | 645 |  |  |  |
| CC(C)c1cc(C(=O)N2C[C@@H](c3ccccc3)C[C@@H]2C(=O)N2CCN(Cc3ccccc3)CC2)c(O)cc1O |  |  | 1033 |  |  |  |
